For seven compounds, MIC results are on record in patent US4323567A, “Arylmalonamido-1-oxadethiacephalosporins” (priority 1976, dated 1982).

Some results are limits rather than exact numbers.

Experiment in all cases: Minimal inhibitory concentration, nutrient agar plate
The subject of one assay is E. coli 73. The assay is classed as cell-based, Escherichia coli. Conditions: Escherichia coli, 73; as sodium salt, inoculum size 10^8, pH 7.0; read-out: Minimal inhibitory concentration.
For a further assay, the system named is Enterobacter cloacae 233. The assay is classed as cell-based. As to conditions: Enterobacter cloacae, 233; as sodium salt, inoculum size 10^8, pH 7.0; read-out: Minimal inhibitory concentration.
The test system of another assay is Proteus mirabilis PR-4. The assay is classed as cell-based. As to conditions: PR4, as sodium salt, inoculum size 10^8, pH 7.0, read-out: Minimal inhibitory concentration.
Assay [1] deals with Pseudomonas aeruginosa Denken. In kind it is cell-based. Conditions: as sodium salt, inoculum size 10^8, pH 7.0, read-out: Minimal inhibitory concentration.
The subject of assay [2] is Serratia marsescens 13880. In kind it is cell-based. As to conditions: Serratia, 13880; as sodium salt, inoculum size 10^8, pH 7.0; read-out: Minimal inhibitory concentration.
The next assay relates to E. coli 377. The assay is classed as cell-based, Escherichia coli. As to conditions: Escherichia coli, 377; as sodium salt, inoculum size 10^8, pH 7.0; read-out: Minimal inhibitory concentration.
Another assay deals with Escherichia coli H. The assay is classed as cell-based. As to conditions: as sodium salt, inoculum size 10^8, pH 7.0, read-out: Minimal inhibitory concentration.
The subject of the next assay is E. coli JC-2. In kind it is cell-based. Conditions: Escherichia coli, JC2; as sodium salt, inoculum size 10^8, pH 7.0; read-out: Minimal inhibitory concentration.
Another assay relates to Ps. aeruginosa 25619. The assay is classed as cell-based, Pseudomonas aeruginosa. As to conditions: Pseudomonas aeruginosa, 25619; as sodium salt, inoculum size 10^8, pH 7.0; read-out: Minimal inhibitory concentration.
Another assay relates to P. vulgaris CN-329. The assay is classed as cell-based. As to conditions: Proteus vulgaris, CN329; as sodium salt, inoculum size 10^8, pH 7.0; read-out: Minimal inhibitory concentration.
A further assay concerns P. vulgaris No. 3. The assay is classed as cell-based. Conditions: Proteus vulgaris, NO.3; as sodium salt, inoculum size 10^8, pH 7.0; read-out: Minimal inhibitory concentration.
Another assay deals with P. morganii No. 9. In kind it is cell-based, Proteus morganii. As to conditions: Morganella morganii, NO.9; as sodium salt, inoculum size 10^8, pH 7.0; read-out: Minimal inhibitory concentration.
The test system of the next assay is Klebsiella sp. 363. The assay is classed as cell-based. Conditions: SP.363, as sodium salt, inoculum size 10^8, pH 7.0, read-out: Minimal inhibitory concentration.
The subject of a further assay is Ps. aeruginosa 24. The assay is classed as cell-based, Pseudomonas aeruginosa. As to conditions: Pseudomonas aeruginosa, 24; as sodium salt, inoculum size 10^8, pH 7.0; read-out: Minimal inhibitory concentration.
The next assay deals with Klebsiella pneumoniae. In kind it is cell-based. Conditions: as sodium salt, inoculum size 10^8, pH 7.0, read-out: Minimal inhibitory concentration.

On to `CC(=O)OCC1=C(C(=O)O)N2C(=O)[C@@H](NC(=O)Cc3cccs3)[C@H]2SC1` [Cefalotin, reference compound], for which the MIC was greater than 100 µg/mL with E. coli 73; greater than 100 µg/mL in the assay with Enterobacter cloacae 233; 3.2 µg/mL in the assay on Proteus mirabilis PR-4; greater than 100 µg/mL in assay [1]; greater than 100 µg/mL in assay [2]; greater than 100 µg/mL in the assay on E. coli 377. The MIC in the assay with Escherichia coli H is 3.2 µg/mL; in the assay with E. coli JC-2, 12.5 µg/mL; with Ps. aeruginosa 25619, greater than 100 µg/mL; in the assay with P. vulgaris CN-329 it was greater than 100 µg/mL; with P. vulgaris No. 3, greater than 100 µg/mL; with P. morganii No. 9, greater than 100 µg/mL. The MIC with Klebsiella sp. 363 is greater than 100 µg/mL; in the assay on Ps. aeruginosa 24, greater than 100 µg/mL; in the assay with Klebsiella pneumoniae, 1.6 µg/mL.
As for `CO[C@@]1(NC(=O)C(C(=O)O)c2ccsc2)C(=O)N2C(C(=O)O)=C(CSc3nnnn3C)CO[C@@H]21` (stereo partly drawn) [III-19, 7β-[α-(3-thienyl)-α-carboxyacetamido]-7α-methoxy-3-(1-methyltetrazol-5-yl)thiomethyl-1-oxadethia-3-cephem-4-carboxylic acid], the MIC with E. coli 73 amounted to 0.2 µg/mL; with Enterobacter cloacae 233 it was 0.1 µg/mL; with Proteus mirabilis PR-4, 0.2 µg/mL; in assay [1], 100 µg/mL; in [2], 0.39 µg/mL; with E. coli 377, 0.1 µg/mL. In addition, the MIC was found to be 0.025 µg/mL in the assay on Escherichia coli H; 0.05 µg/mL in the assay on E. coli JC-2; 12.5 µg/mL with Ps. aeruginosa 25619; 0.1 µg/mL with P. vulgaris CN-329; 0.2 µg/mL in the assay with P. vulgaris No. 3; 0.1 µg/mL in the assay with P. morganii No. 9. Further, the MIC was 0.05 µg/mL in the assay on Klebsiella sp. 363, 50 µg/mL in the assay with Ps. aeruginosa 24 and 0.2 µg/mL in the assay with Klebsiella pneumoniae.
For the compound `Cn1nnnc1SCC1=C(C(=O)O)N2C(=O)[C@@H](NC(=O)C(C(=O)O)c3cccs3)[C@H]2OC1` (stereo partly drawn) [Example III-8, 7β-[α-(2-thienyl)-α-carboxyacetamido]-3-(1-methyltetrazol-5-yl)thiomethyl-1-oxadethia-3-cephem-4-carboxylic acid], the MIC is greater than 100 µg/mL in the assay with E. coli 73; 0.2 µg/mL with Enterobacter cloacae 233; 0.2 µg/mL with Proteus mirabilis PR-4; greater than 100 µg/mL in assay [1]; 0.78 µg/mL in assay [2]; 0.2 µg/mL with E. coli 377. The MIC with Escherichia coli H is 0.1 µg/mL; in the assay on E. coli JC-2, 0.1 µg/mL; with Ps. aeruginosa 25619, 3.13 µg/mL; with P. vulgaris CN-329, 50 µg/mL; in the assay with P. morganii No. 9, 0.39 µg/mL; in the assay with Klebsiella sp. 363, greater than 100 µg/mL. Further, the MIC is greater than 100 µg/mL in the assay with Ps. aeruginosa 24 and 0.1 µg/mL in the assay with Klebsiella pneumoniae.
For `CO[C@@]1(NC(=O)C(C(=O)O)c2ccc(OC(C)=O)cc2)C(=O)N2C(C(=O)O)=C(CSc3nnnn3C)CO[C@@H]21` (stereo partly drawn) [III-14, 7β-(α-carboxy-α-p-acetoxyphenylacetamido)-7α-methoxy-3-(1-methyltetrazol-5-yl)thiomethyl-1-oxadethia-3-cephem-4-carboxylic acid], the MIC in the assay on E. coli 73 was 1.56 µg/mL; in the assay with Enterobacter cloacae 233, 0.78 µg/mL; with Proteus mirabilis PR-4 it was 0.2 µg/mL; in assay [1], greater than 100 µg/mL; in the assay on E. coli 377, 1.56 µg/mL; with Escherichia coli H, 0.2 µg/mL. The MIC in the assay on E. coli JC-2 was 0.39 µg/mL; in the assay with Ps. aeruginosa 25619, 25 µg/mL; in the assay on P. vulgaris CN-329 it was 0.2 µg/mL; in the assay with P. vulgaris No. 3, 0.39 µg/mL; with P. morganii No. 9, 0.39 µg/mL; in the assay on Klebsiella sp. 363 it was 0.78 µg/mL. In addition, the MIC in the assay on Ps. aeruginosa 24 was determined as 100 µg/mL; in the assay on Klebsiella pneumoniae, 0.39 µg/mL.
As to `CO[C@@]1(NC(=O)C(C(=O)O)c2cccs2)C(=O)N2C(C(=O)O)=C(CSc3nnnn3C)CO[C@@H]21` (stereo partly drawn) [III-23, 7β-[α-carboxy-α-(2-theinyl)acetamido]-7α-methoxy-3-(1-methyltetrazol-5-yl)thiomethyl-1-oxadethia-3-cephem-4-carboxylic acid], the MIC in the assay on E. coli 73 is 0.2 µg/mL; with Enterobacter cloacae 233 it was 0.2 µg/mL; in the assay with Proteus mirabilis PR-4 it was 0.1 µg/mL; in assay [1], 100 µg/mL; in [2], 0.39 µg/mL; in the assay on E. coli 377, 0.39 µg/mL. In addition, the MIC worked out at 0.025 µg/mL in the assay with Escherichia coli H; 0.05 µg/mL with E. coli JC-2; 12.5 µg/mL with Ps. aeruginosa 25619; 0.1 µg/mL in the assay with P. vulgaris CN-329; 0.1 µg/mL with P. morganii No. 9; 0.1 µg/mL with Klebsiella sp. 363. Also, the MIC in the assay on Ps. aeruginosa 24 is 50 µg/mL; with Klebsiella pneumoniae, 0.05 µg/mL.
On to `O=C(O)Cn1nnnc1SCC1=C(C(=O)O)N2C(=O)[C@@H](NC(=O)C(C(=O)O)c3ccccc3)[C@H]2OC1` (stereo partly drawn) [Example III-10, 7β-(α-carboxy-α-phenylacetamido)-3-(1-carboxymethyltetrazol-5-yl)thiomethyl-1-oxadethia-3-cephem-4-carboxylic acid], for which the MIC was greater than 100 µg/mL in the assay on E. coli 73; 12.5 µg/mL in the assay on Enterobacter cloacae 233; 0.78 µg/mL in the assay with Proteus mirabilis PR-4; greater than 100 µg/mL in assay [1]; 50 µg/mL in [2]; 0.25 µg/mL in the assay on E. coli 377. Moreover, the MIC was 0.78 µg/mL with Escherichia coli H; 3.13 µg/mL with E. coli JC-2; 100 µg/mL with Ps. aeruginosa 25619; greater than 100 µg/mL with P. vulgaris CN-329; 0.78 µg/mL with P. morganii No. 9; greater than 100 µg/mL in the assay on Klebsiella sp. 363. For the same compound, the MIC in the assay with Ps. aeruginosa 24 was greater than 100 µg/mL; in the assay with Klebsiella pneumoniae, 3.13 µg/mL.
As to `CO[C@@]1(NC(=O)C(C(=O)O)c2ccc(O)cc2)C(=O)N2C(C(=O)O)=C(CSc3nnnn3C)CO[C@@H]21` (stereo partly drawn) [III-15, 7β-(α-carboxy-α-p-hydroxyphenylacetamido)-7α-methoxy-3-(1-methyltetrazol-5-yl)thiomethyl-1-oxadethia-3-cephem-4-carboxylic acid], the MIC is 0.78 µg/mL with E. coli 73; 0.39 µg/mL with Proteus mirabilis PR-4; 100 µg/mL in assay [1]; 1.56 µg/mL in [2]; 0.39 µg/mL in the assay on E. coli 377; 0.1 µg/mL with Escherichia coli H. The MIC in the assay on E. coli JC-2 is 0.02 µg/mL; with Ps. aeruginosa 25619, 6.25 µg/mL; in the assay on P. vulgaris CN-329, 0.39 µg/mL; in the assay with P. vulgaris No. 3 it was 0.39 µg/mL; with P. morganii No. 9, 0.39 µg/mL; in the assay on Klebsiella sp. 363 it was 0.1 µg/mL. The figures for the MIC in the assay with Ps. aeruginosa 24 and in the assay with Klebsiella pneumoniae were 50 µg/mL and 0.2 µg/mL, respectively.
